Laboratory results: the SangsterLogP compilation

What was measured:
[1] = method code SF-RC, from DOI: 10.1016/j.bmc.2015.06.036, PMID: 26145817; conditions: pH 7.4
[2] = method code SF-AS, from DOI: 10.1016/s0021-9673(00)91570-x; conditions: pH 3.4
[3] = method code SF, from DOI: 10.1002/jps.2600830715, PMID: 7965680
[4] = method code SF, from DOI: 10.1021/jm00167a034, PMID: 2329572; conditions: pH 7.4
[5] = method code SF-HPLC, from DOI: 10.1016/0378-5173(86)90195-x; conditions: pH 7.4
[6] = method code SF-AS, from PMID: 7912440
[7] = method code SF-AS, from DOI: 10.1002/ps.2780140302; conditions: pH 5.0
[8] = not given; remark: listed apart in the source
[9] = not given; remark: listed apart in the source
[10] = method code SF-AS, from Zsuzsa, H.; Nora, K. (1979). Study on the partition coefficient of acetanilides. Nehezvegyp. Kut. Intez. Kozl., 8, 139-146.
[11] = method code SF-AS, from DOI: 10.1016/s0022-3565(25)32601-7, PMID: 7194909
[12] = method code SF-HPLC, from PMID: 1854437; conditions: pH 7.4
[13] = method code SF-AS, from DOI: 10.1002/qsar.19830020405; conditions: pH 2.0
[14] = method code SF, from Wang, L.; Li, H.; Wang, X.; Zhang, Z. (1993). Determination of aqueous solubilities and partition coefficients of substitutive ethylketone congeners by generator column. Huanjing Huaxue, 12(2)151-154.
[15] = method code SF-RC, from DOI: 10.1021/acs.jmedchem.6b00849, PMID: 27690428; conditions: pH 7.4
[16] = not given; remark: listed apart in the source
[17] = method code SF-AS, from DOI: 10.1135/cccc19831077; conditions: pH 3.5
[18] = method code SF, from DOI: 10.1016/j.ejmech.2012.08.015, PMID: 22960698
[19] = method code RP-HPLC, from DOI: 10.1021/jm970292n, PMID: 9371243
[20] = not given; remark: listed apart in the source
[21] = method code SF-RC, from DOI: 10.1021/jm00238a003, PMID: 1120999; conditions: pH 7.0
[22] = method code SF-RC, from DOI: 10.1021/jf60186a044, PMID: 4688915
[23] = method code SF-RC, from DOI: 10.1016/j.bmcl.2015.05.048, PMID: 26073008; conditions: pH 7.4
[24] = method code SF-AS, from DOI: 10.1021/jm00040a014, PMID: 8035429; conditions: pH 7.4
[25] = method code SF-AS, from DOI: 10.1016/s0014-827x(98)00024-x, PMID: 9679281
[26] = method code SF, from DOI: 10.1016/j.ijpharm.2011.07.043, PMID: 21839822; conditions: pH 7.4
[27] = method code SF-RC, from DOI: 10.1021/jm201482p, PMID: 22339166; conditions: pH 6.8
[28] = not given; remark: listed apart in the source
[29] = not given; remark: listed apart in the source
[30] = pH 7.4
[31] = method code SF-AS, from DOI: 10.1039/p29900001191; conditions: pH 12.0
[32] = method code SF-HPLC, from DOI: 10.1016/j.jpba.2011.06.023, PMID: 21782368; conditions: pH 7.4

Work on Cc1cc(N(C)CCCCF)n2nc(C)c(-c3ccc(Cl)cc3Cl)c2n1 yielded a logD [1] of 2.75.

For COc1cc(CC(=O)O)ccc1OCCCC(C)C, the logD [2] was 3.3.

Work on Nc1ccc(S(=O)(=O)Nc2ccnn2-c2ccccc2)cc1 yielded a logP of 1.35.

For CC(NC(=O)N(CCCl)N=O)C(=O)NC1CC(C)(C)N(O)C(C)(C)C1 (stereo unspecified), the logP [3] was 1.28.

Compound Cc1cn(C2CC(N=[N+]=[N-])C(COC(=O)C(N)Cc3ccc(O)cc3)O2)c(=O)[nH]c1=O (stereo unspecified) has a logD [4] of -0.03.

Compound CC(=O)OCOc1ccccc1C(=O)NCN1CCOCC1 has a logD [5] of 0.27.

Work on CC(=O)c1cc(C(C)C)ccc1OCC(O)CN (stereo unspecified) yielded a logP [6] of 0.1.

Work on OC(c1ccc(F)cc1)(c1cncnc1)c1ccccc1Cl (stereo unspecified) yielded a logD [7] of 2.2.

With O=C(O)Cc1ccc(OCc2ccccc2)cc1 the logD [2] was 2.85.

With N#Cc1ccc(OCC2CCN(CCCF)CC2)cc1 the logP [8] was 2.8.

Cc1ccc(OP(=O)(Oc2ccccc2)Oc2ccccc2)cc1 showed a logP [9] of 4.4.

With CC(=O)N(CC(=O)Nc1ccccc1)c1ccccc1 the logP [10] was 2.01.

OC1(c2ccc(Cl)cc2)c2ccccc2C2=NCCCN21 (stereo unspecified) showed a logP [11] of 1.41.

For CCCC(=O)OCn1cnc(CSCCNC(=NC#N)NC)c1C, the logD [12] was 1.6.

For Cc1cc(N(C)CCOCCF)n2nc(C)c(-c3ccc(Cl)cc3Cl)c2n1, the logD [1] was 2.3.

In the case of CC(C(=O)O)c1cccc(C(=O)c2ccccc2)c1 (stereo unspecified), the logD [13] is reported as 3.12.

Work on COc1ccc(C(=O)CSc2ccccc2)cc1 yielded a logP [14] of 2.2.

N#Cc1ccc(N(Cc2ccc(I)cc2)n2ccnc2)cc1 gave a logD [15] of 1.59.

Compound Cc1ccc(C(=O)c2ccc(CC(=O)O)n2C)cc1 has a logD [13] of 2.79.

With Cc1noc(C)c1NC1=CC(=O)C(=O)c2ccccc21 the logP [16] was 1.51.

With O=C(O)Cc1ccc(OCCc2ccccc2)c(Cl)c1 the logD [17] was 3.53.

Compound COc1ccc(C(=O)CC2OC(=O)c3ccccc32)cc1OC (stereo unspecified) has a logP [18] of 2.61.

In the case of O=C1c2c(O)cc(O)cc2O[C@H](c2ccc(O)c(O)c2)[C@H]1O, the logP is reported as 1.4.

COc1cccc2cc3cccc(OC)c3c(OC)c12 gave a logP [19] of 4.1.

For CC(C)CC(O)C(O)C(CC1CCCCCC1)NC(=O)CN (stereo unspecified), the logP [20] was 1.52.

For O=P(Oc1ccccc1)(Oc1ccccc1)Oc1ccccc1, the logP [9] was 3.9.

Nc1ccn([C@@H]2O[C@H](COC(=O)c3ccccc3)[C@@H](O)[C@@H]2O)c(=O)n1 gave a logD [21] of 0.5.

For Cc1ccc(C(c2ccc(Cl)cc2)C(Cl)(Cl)Cl)cc1 (stereo unspecified), the logP [22] was 4.47.

Compound O=C(CN(C(=O)C(Cl)Cl)c1ccccc1)Nc1ccccc1 has a logP [10] of 2.96.

Compound CCCCCc1onc(C)c1N=C1C=C(O)C(=O)c2ccccc21 has a logP [16] of 3.25.

O=c1cc(/C=C/c2ccc(O)cc2)oc2ccc(I)cc12 gave a logD [23] of 1.87.

Work on COP(=O)(OC)C(=O)Nc1ccn(C2CSC(COC(=O)P(=O)(OC)OC)O2)c(=O)n1 (stereo unspecified) yielded a logD [24] of 0.72.

Compound O=C(CC1OC(=O)c2ccccc21)c1ccccc1 (stereo unspecified) has a logP [18] of 2.96.

Cc1ccc(SCC(=O)c2ccc(C)cc2)cc1 showed a logP [14] of 3.19.

Compound CC(C)CC(O)C(O)C(N)NC1CCCCC1 (stereo unspecified) has a logP [20] of 1.86.

N#Cc1ccc(OCC2CCN(CCF)CC2)cc1 gave a logP [8] of 2.8.

c1ccc(Nc2nnc(Cn3ccc4ccccc43)s2)cc1 showed a logP [25] of 3.73.

CCCCCCCCCCNC(=O)c1ccccc1O gave a logD [26] of 4.53.

For O=C1c2c(O)cccc2C(c2ccccc2)c2cccc(O)c21, the logP [19] was 3.81.

Cc1[nH]c2ccccc2c1Cc1n[nH]c(=S)n1-c1cccc2ccccc12 showed a logP [25] of 3.02.

Cc1cccc2c1O[P@](=O)(OC[C@H]1O[C@@H](n3cc(I)c(=O)[nH]c3=O)C[C@@H]1O)OC2 gave a logD [27] of 0.85.

CCOP(=O)(CC(=O)Nc1ccn(C2CSC(CO)O2)c(=O)n1)OCC (stereo unspecified) gave a logD [24] of 0.99.

Compound OC(c1ccccc1)(c1cncnc1)c1ccc(Cl)cc1Cl (stereo unspecified) has a logD [7] of 2.56.

In the case of CCCCCC(C=O)(CCCC)c1oc(=O)c(CCCC)c(O)c1CCCC (stereo unspecified), the logP [28] is reported as 1.52.

Work on CNC(=NC#N)NCCSCc1ncn(COC(=O)C(C)(C)C)c1C yielded a logD [12] of 1.81.

N#Cc1ccc(N(Cc2ccc(I)cc2)c2cncnc2)cc1 gave a logD [15] of 2.16.

Compound OC1(c2ccc(Cl)cc2)c2ccccc2C2=NCCCCN21 (stereo unspecified) has a logP [11] of 1.15.

With O=c1[nH]c(=O)n([C@H]2C[C@H](O)[C@@H](CO[P@]3(=O)OCc4ccccc4O3)O2)cc1I the logD [27] was 0.65.

For Cc1nonc1-c1ccc(OCCCc2c[nH]cn2)cc1, the logP [29] was 2.92.

Cc1ccc(C)n1NC(=O)Cc1ccc(N2CCOCC2)nn1 gave a logD [30] of 1.64.

With COc1ccc(/C=C/c2cc(=O)c3cc(I)ccc3o2)cc1 the logD [23] was 2.15.

With N#Cc1cc(-c2ccccc2)nnc1NCCN1CCOCC1 the logD [31] was 1.89.

In the case of CCOC(=O)CC(CNC(=O)OC(C)(C)C)c1ccc(Cl)cc1 (stereo unspecified), the logD [32] is reported as 2.

Work on Cc1ccc(C)n1Nc1ccc(N2C[C@@H](C)O[C@@H](C)C2)nn1 yielded a logD [30] of 2.59.

Compound CC1(C)CC(NC(=O)CNC(=O)N(CCCl)N=O)CC(C)(C)N1O has a logP [3] of 1.23.

Work on COC(=O)CC(CNC(=O)OC(C)(C)C)c1ccc(Cl)cc1 (stereo unspecified) yielded a logD [32] of 1.5.

Compound CC(=O)c1cc(C(C)(C)C)ccc1OCC(O)CN (stereo unspecified) has a logP [6] of 0.38.

With COc1cc(CC(=O)O)ccc1OCc1ccccc1 the logD [17] was 2.59.

Nc1ccn([C@@H]2O[C@H](COC(=O)c3cccnc3)[C@@H](O)[C@@H]2O)c(=O)n1 showed a logD [21] of -0.6.

With CCCCCCCCCCCCNC(=O)c1ccccc1O the logD [26] was 5.37.

For NC(=O)c1c(-c2ccc(OCCCc3c[nH]cn3)cc2)no[n+]1[O-], the logP [29] was 1.57.

CCCCc1c(C)oc(=O)c(CCCC)c1O showed a logP [28] of 0.79.

In the case of Cc1cn([C@H]2C[C@H](N=[N+]=[N-])[C@@H](COC(=O)c3cccnc3)O2)c(=O)[nH]c1=O, the logD [4] is reported as 0.2.

Work on Cc1ccc(C(c2ccc(C)cc2)C(Cl)(Cl)Cl)cc1 yielded a logP [22] of 3.57.

In the case of CCCC(=O)OCOc1ccccc1C(=O)NCN1CCOCC1, the logD [5] is reported as 1.34.

With c1ccc(Cc2cc(-c3ccccc3)nnc2NCCN2CCOCC2)cc1 the logD [31] was 3.65.
